Numbered stars: 1 amine (or outer) side, 2 acyl side, 3 side chain; on linkers, the order of the positions; unused ones are H or OH. Square brackets hold non-standard residues; d marks the D form. Side chains are listed from the residue outwards. Peptide text beside a SMILES is read from it. * marks the point of attachment. C20 diacid = O=C(O)CCCCCCCCCCCCCCCCCCC(=O)*; C18 diacid = O=C(O)CCCCCCCCCCCCCCCCC(=O)*; αMePhe(2-F) = C[C@](N)(Cc1ccccc1F)C(=O)O; γGlu = O=C(O)[C@H](CCC(=O)[*:2])N[*:1]; αMeF = C[C@](N)(Cc1ccccc1)C(=O)O; αMeL = CC(C)C[C@](C)(N)C(=O)O; Dap = NC[C@H](N)C(=O)O; AEEA = NCCOCCOCC(=O)O; Aib = CC(C)(N)C(=O)O
Experiments:
human Gcg receptor = biological target: T1, human Gcg receptor (Homo sapiens, UniProt P47871); experiment: [125I]-Glucagon binding (SPA), human Gcg receptor; settings: read-out: hGLcgR Ki, nM (SEM, n)
T1 construct: expressed in transfected cells; crude membranes
Method in brief: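 Cell pellets were lysed in hypotonic Tris buffer, pH 7.5, homogenized, and spun at low then high speed to give crude membranes. Ki was derived from the fitted IC50.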

[1] = biological target: T2, gastric inhibitory peptide receptor (GIPR) (Homo sapiens, UniProt P48546); experiment: cAMP pharmacological functional assay in presence of casein, hGIPR; format: cell-based; settings: HEK293 cells expressing hGIPR, 0.1% Casein, geometric mean; read-out: hGIPR cAMP Rel EC50 nM (SEM, n)
T2 sequence (P48546 22-466): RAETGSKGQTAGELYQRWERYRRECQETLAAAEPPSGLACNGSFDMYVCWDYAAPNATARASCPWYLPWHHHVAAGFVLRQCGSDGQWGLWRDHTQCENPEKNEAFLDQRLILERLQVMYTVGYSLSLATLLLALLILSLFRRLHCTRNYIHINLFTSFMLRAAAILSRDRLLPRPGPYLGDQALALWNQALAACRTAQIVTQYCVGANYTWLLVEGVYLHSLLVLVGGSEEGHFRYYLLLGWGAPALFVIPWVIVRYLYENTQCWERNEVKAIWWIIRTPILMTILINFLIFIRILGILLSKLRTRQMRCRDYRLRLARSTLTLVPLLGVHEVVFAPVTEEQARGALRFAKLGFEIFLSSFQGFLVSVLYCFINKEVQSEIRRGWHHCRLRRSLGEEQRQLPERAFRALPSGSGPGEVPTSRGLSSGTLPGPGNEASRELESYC

human GIP receptor = biological target: T3, human GIP receptor (Homo sapiens, UniProt P48546); experiment: [125I]-GIP binding (SPA), human GIP receptor; settings: read-out: hGIPR Ki, nM (SEM, n)
T3 construct: expressed in transfected cells; crude membranes
T3 sequence (P48546 22-466): T2 sequence (P48546 22-466)

human GLP-1R = human GLP-1R (Homo sapiens, UniProt P43220); experiment: [125I]-GLP-1 binding (SPA), human GLP-1 receptor; set-up: expressed in transfected cells; crude membranes; settings: read-out: hGLP1R Ki, (nM) (SEM, n)
Method in brief: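 Membranes: hypotonic lysis (50 mM Tris HCl, pH 7.5, protease inhibitors), Potter-Elvehjem homogenization, high-speed pellet (35000×g 1 h or 25000×g 30 min, 4° C.). Buffer: 25 mM HEPES pH 7.4, 2.5 mM CaCl2, 1 mM MgCl2. Four-parameter IC50 fit; Ki as geometric mean ± SEM.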

[2] = biological target: human GLP-1 receptor (GLP-1R) (Homo sapiens, UniProt P43220); experiment: cAMP pharmacological functional assay in presence of casein, hGLP-1R; format: cell-based; settings: HEK293 cells expressing hGLP-1R, 0.1% Casein, geometric mean; read-out: hGLP1R cAMP Rel EC50 nM (SEM, n)
Chain of human GLP-1 receptor (GLP-1R) (P43220 24-463): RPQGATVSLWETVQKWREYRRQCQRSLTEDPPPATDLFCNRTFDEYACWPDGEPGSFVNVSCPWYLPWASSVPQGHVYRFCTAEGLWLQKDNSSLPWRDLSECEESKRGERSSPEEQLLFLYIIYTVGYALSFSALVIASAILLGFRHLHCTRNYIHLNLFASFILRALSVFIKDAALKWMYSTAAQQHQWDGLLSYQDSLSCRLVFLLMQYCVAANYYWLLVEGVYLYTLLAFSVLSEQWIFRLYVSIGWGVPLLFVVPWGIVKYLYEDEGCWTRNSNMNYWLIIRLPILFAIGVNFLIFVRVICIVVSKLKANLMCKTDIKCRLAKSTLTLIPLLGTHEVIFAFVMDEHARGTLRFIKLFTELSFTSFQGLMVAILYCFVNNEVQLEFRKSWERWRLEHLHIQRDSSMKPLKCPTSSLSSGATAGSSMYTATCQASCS

Chain of human GLP-1R (P43220 24-463): as above
T1 sequence (P47871 26-477): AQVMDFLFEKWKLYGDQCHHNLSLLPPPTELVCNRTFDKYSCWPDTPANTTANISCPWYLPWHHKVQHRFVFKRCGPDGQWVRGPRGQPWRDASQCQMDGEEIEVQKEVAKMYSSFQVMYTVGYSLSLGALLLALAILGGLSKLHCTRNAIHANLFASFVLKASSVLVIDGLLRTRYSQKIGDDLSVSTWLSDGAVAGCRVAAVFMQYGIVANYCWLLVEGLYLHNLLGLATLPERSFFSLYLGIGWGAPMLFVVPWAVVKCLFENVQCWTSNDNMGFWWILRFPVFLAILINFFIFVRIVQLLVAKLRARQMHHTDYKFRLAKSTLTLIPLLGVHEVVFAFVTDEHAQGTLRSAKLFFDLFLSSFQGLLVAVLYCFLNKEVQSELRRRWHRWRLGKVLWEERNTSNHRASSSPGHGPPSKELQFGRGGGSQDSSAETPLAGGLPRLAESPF

Structure (SMILES) | Ki (human Gcg receptor) [nM] | EC50 [1] [nM] | Ki (human GIP receptor) [nM] | Ki (human GLP-1R) [nM] | EC50 [2] [nM]
CC[C@H](C)[C@H](NC(=O)[C@H](CC(C)C)NC(=O)[C@H](Cc1ccc(O)cc1)NC(=O)[C@H](CCC(=O)O)NC(=O)[C@@H](NC(=O)[C@H](Cc1ccccc1)NC(=O)[C@H](C)NC(=O)C(C)(C)NC(=O)[C@H](CCC(N)=O)NC(=O)[C@H](C)NC(=O)[C@H](CCCCNC(=O)COCCOCCNC(=O)COCCOCCNC(=O)CC[C@H](NC(=O)CCCCCCCCCCCCCCCCC(=O)O)C(=O)O)NC(=O)[C@H](CCCCN)NC(=O)[C@H](CC(=O)O)NC(=O)[C@H](CC(C)C)NC(=O)[C@H](CC(C)C)NC(=O)[C@@H](NC(=O)[C@H](CO)NC(=O)[C@H](Cc1ccc(O)cc1)NC(=O)[C@H](CC(=O)O)NC(=O)[C@H](CO)NC(=O)[C@@H](NC(=O)[C@H](Cc1ccccc1)NC(=O)[C@@H](NC(=O)CNC(=O)[C@H](CCC(=O)O)NC(=O)C(C)(C)NC(=O)[C@@H](N)Cc1ccc(O)cc1)[C@@H](C)O)[C@@H](C)O)[C@@H](C)CC)[C@@H](C)CC)C(=O)N[C@@H](C)C(=O)NCC(=O)NCC(N)=O [Example 273] (H-Y[Aib]EGTFTSDYSILLDKK([AEEA-AEEA-γGlu-C18 diacid])AQ[Aib]AFIEYLIAGG-NH2) | 724 | 0.079 | 0.0698 | 1.13 | 0.0352
CC[C@H](C)[C@H](NC(=O)[C@H](CC(C)C)NC(=O)[C@H](Cc1ccc(O)cc1)NC(=O)[C@@H](CCC(=O)O)NC(=O)[C@@H](NC(=O)[C@H](Cc1ccccc1)NC(=O)[C@H](CCC(=O)O)NC(=O)C(C)(C)NC(=O)[C@H](CCC(N)=O)NC(=O)[C@H](C)NC(=O)[C@H](CCCCNC(=O)COCCOCCNC(=O)COCCOCCNC(=O)CC[C@H](NC(=O)CCCCCCCCCCCCCCCCC(=O)O)C(=O)O)NC(=O)[C@H](CN)NC(=O)[C@H](CC(=O)O)NC(=O)[C@H](CC(C)C)NC(=O)[C@](C)(CC(C)C)NC(=O)[C@@H](NC(=O)[C@H](CO)NC(=O)[C@H](Cc1ccc(O)cc1)NC(=O)[C@H](CC(=O)O)NC(=O)[C@H](CO)NC(=O)[C@@H](NC(=O)[C@](C)(Cc1ccccc1F)NC(=O)[C@@H](NC(=O)CNC(=O)[C@H](CCC(=O)O)NC(=O)C(C)(C)NC(=O)[C@@H](N)Cc1ccc(O)cc1)[C@@H](C)O)[C@@H](C)O)[C@@H](C)CC)[C@@H](C)CC)C(=O)N[C@@H](CCC(=O)O)C(=O)NCC(=O)NCC(=O)N1CCC[C@H]1C(=O)N[C@@H](CO)C(=O)N[C@@H](CO)C(=O)NCC(=O)N[C@@H](C)C(=O)N1CCC[C@H]1C(=O)N1CCC[C@H]1C(=O)N1CCC[C@H]1C(=O)N[C@@H](CO)C(N)=O [Example 210] (H-Y[Aib]EGT[αMePhe(2-F)]TSDYSI[αMeL]LD[Dap]K([AEEA-AEEA-γGlu-C18 diacid])AQ[Aib]EFI[dE]YLIEGGPSSGAPPPS-NH2) | > 1010 | 0.0383 | 0.0399 | 1.58 | 0.0432
CC[C@H](C)[C@H](NC(=O)[C@H](CC(C)C)NC(=O)[C@H](Cc1ccc(O)cc1)NC(=O)[C@H](CCC(=O)O)NC(=O)[C@@H](NC(=O)[C@H](Cc1ccccc1)NC(=O)[C@H](Cc1c[nH]cn1)NC(=O)C(C)(C)NC(=O)[C@H](CCC(N)=O)NC(=O)[C@H](C)NC(=O)[C@H](CCCCNC(=O)COCCOCCNC(=O)COCCOCCNC(=O)CC[C@H](NC(=O)CCCCCCCCCCCCCCCCCCC(=O)O)C(=O)O)NC(=O)[C@H](CCCCN)NC(=O)[C@H](CC(=O)O)NC(=O)[C@H](CC(C)C)NC(=O)[C@](C)(CC(C)C)NC(=O)[C@@H](NC(=O)[C@H](CO)NC(=O)[C@H](Cc1ccc(O)cc1)NC(=O)[C@H](CC(=O)O)NC(=O)[C@H](CO)NC(=O)[C@@H](NC(=O)[C@](C)(Cc1ccccc1)NC(=O)[C@@H](NC(=O)CNC(=O)[C@H](CCC(=O)O)NC(=O)C(C)(C)NC(=O)[C@@H](N)Cc1ccc(O)cc1)[C@@H](C)O)[C@@H](C)O)[C@@H](C)CC)[C@@H](C)CC)C(=O)N[C@@H](CCC(=O)O)C(=O)NCC(=O)NCC(=O)N1CCC[C@H]1C(=O)N[C@@H](CO)C(=O)N[C@@H](CO)C(=O)NCC(=O)N[C@@H](C)C(=O)N1CCC[C@H]1C(=O)N1CCC[C@H]1C(=O)N1CCC[C@H]1C(=O)N[C@@H](CO)C(N)=O [Example 142] (H-Y[Aib]EGT[αMeF]TSDYSI[αMeL]LDKK([AEEA-AEEA-γGlu-C20 diacid])AQ[Aib]HFIEYLIEGGPSSGAPPPS-NH2; N-terminus assumed) | 53.1 | 0.0489 | 0.0275 | 1.06 | 0.0426
CC[C@H](C)[C@H](NC(=O)[C@H](CC(C)C)NC(=O)[C@H](Cc1ccc(O)cc1)NC(=O)[C@H](CCC(=O)O)NC(=O)[C@@H](NC(=O)[C@H](Cc1ccccc1)NC(=O)C(C)(C)NC(=O)[C@H](Cc1c[nH]cn1)NC(=O)[C@H](CCC(N)=O)NC(=O)[C@H](C)NC(=O)[C@H](CCCCNC(=O)COCCOCCNC(=O)COCCOCCNC(=O)CC[C@H](NC(=O)CCCCCCCCCCCCCCCCCCC(=O)O)C(=O)O)NC(=O)[C@H](CCCCN)NC(=O)[C@H](CC(=O)O)NC(=O)[C@H](CC(C)C)NC(=O)[C@](C)(CC(C)C)NC(=O)[C@@H](NC(=O)[C@H](CO)NC(=O)[C@H](Cc1ccc(O)cc1)NC(=O)[C@H](CC(=O)O)NC(=O)[C@H](CO)NC(=O)[C@@H](NC(=O)[C@](C)(Cc1ccccc1)NC(=O)[C@@H](NC(=O)CNC(=O)[C@H](CCC(=O)O)NC(=O)C(C)(C)NC(=O)[C@@H](N)Cc1ccc(O)cc1)[C@@H](C)O)[C@@H](C)O)[C@@H](C)CC)[C@@H](C)CC)C(=O)N[C@@H](CCC(=O)O)C(=O)NCC(=O)NCC(=O)N1CCC[C@H]1C(=O)N[C@@H](CO)C(=O)N[C@@H](CO)C(=O)NCC(=O)N[C@@H](C)C(=O)N1CCC[C@H]1C(=O)N1CCC[C@H]1C(=O)N1CCC[C@H]1C(=O)N[C@@H](CO)C(N)=O [Example 144] (H-Y[Aib]EGT[αMeF]TSDYSI[αMeL]LDKK([AEEA-AEEA-γGlu-C20 diacid])AQH[Aib]FIEYLIEGGPSSGAPPPS-NH2) | 77 | 0.0375 | 0.0341 | 1.78 | 0.0608
CC[C@H](C)[C@H](NC(=O)[C@H](Cc1ccccc1)NC(=O)[C@H](C)NC(=O)C(C)(C)NC(=O)[C@H](CCC(N)=O)NC(=O)[C@H](C)NC(=O)[C@H](CCCCNC(=O)COCCOCCNC(=O)COCCOCCNC(=O)CC[C@H](NC(=O)CCCCCCCCCCCCCCCCCCC(=O)O)C(=O)O)NC(=O)[C@H](CO)NC(=O)[C@H](CC(=O)O)NC(=O)[C@H](CC(C)C)NC(=O)[C@H](CC(C)C)NC(=O)[C@@H](NC(=O)[C@H](CO)NC(=O)[C@H](Cc1ccc(O)cc1)NC(=O)[C@H](CC(=O)O)NC(=O)[C@H](CO)NC(=O)[C@@H](NC(=O)[C@H](Cc1ccccc1)NC(=O)[C@@H](NC(=O)CNC(=O)[C@H](CCC(=O)O)NC(=O)C(C)(C)NC(=O)[C@@H](N)Cc1ccc(O)cc1)[C@@H](C)O)[C@@H](C)O)[C@@H](C)CC)C(=O)N[C@@H](CCC(=O)O)C(=O)N[C@@H](Cc1ccc(O)cc1)C(=O)N[C@@H](CC(C)C)C(=O)N[C@@H](CC(C)C)C(=O)N[C@@H](CCC(=O)O)C(=O)NCC(=O)NCC(=O)N1CCC[C@H]1C(=O)N[C@@H](CO)C(=O)N[C@@H](CO)C(=O)NCC(=O)N[C@@H](C)C(=O)N1CCC[C@H]1C(=O)N1CCC[C@H]1C(=O)N1CCC[C@H]1C(=O)N[C@@H](CO)C(N)=O [Example 7] (H-Y[Aib]EGTFTSDYSILLDSK([AEEA-AEEA-γGlu-C20 diacid])AQ[Aib]AFIEYLLEGGPSSGAPPPS-NH2) | 198 | 0.461 | 0.252 | 43.3 | 0.47

Reference: US12252524B2, “GIP/GLP1 co-agonist compounds” (Eli Lilly and Company, priority 2018, dated 2025)
